US10544460B2, “Homeobox transcription factor ventx regulates differentiation and maturation of human dendritic cells” (priority 2013, dated 2020)

Experiments:
VentX [1] = test: VentX knockdown efficiency in monocytes / monocyte-derived DCs; type: cell-based, human; details: 5 days after transfection
From the text: Following a recent finding that VentX is expressed in human primary monocytes, VentX expression was examined during primary monocytes to dendritic cells differentiation induced by GM-CSF and IL-4 treatment. […] To explore potential role of VentX in DC differentiation, the effects of VentX knockdown on in vitro DCs differentiation were examined. […] (Iwamoto, et al. 2007 J Immunol 179(3): p. 1449-57; Gabriele, et al. 2004 Blood 103(3): p. 980-7.) To obtain a long-lasting knockdown effect of VentX in monocytes, a morpholino (MO) mediated VentX knockdown strategy was developed. Two different morpholino antisense oligonucleotides were designed (VentX MO and VentX MO-2) and tested for the knockdown efficiency of VentX. […] Freshly isolated CD14^+CD1a^− monocytes differentiate in vitro into immature CD14^−CD1a^+ DCs when cultured with GM-CSF and IL-4. […] To corroborate the role of VentX in regulating DCs differentiation, VentX was ectopically expressed in primary monocytes and the CD14^−CD1a^+ cells were determined after 3 days of cytokines treatment. […]
(§1) Dendritic & Antigen Presenting Cell PCR Array was purchased from SABiosciences (Valencia, Calif.). […] (Wu, et al. 2011 J Clin Invest 121(7): p. 2599-613.) Incorporated BrdU was detected with PE-conjugated anti-BrdU antibody and analyzed with flow cytometry.

human primary monocytes = test: Primary monocyte to dendritic cell differentiation induced by GM-CSF and IL4 (flow cytometry of surface antigens); type: cell-based
Description: Peripheral blood mononuclear cells (PBMC) from healthy adult donors at Dana-Farber Cancer Institute were isolated by Ficoll density gradient centrifugation. CD14^+ monocytes were purified from PBMCs using anti-CD14 antibody coated magnetic microbeads (Miltenyi Biotec, Auburn, Calif.). Monocytes were cultured in 12-well plates at 1×10^6 cells/ml with RPMI 1640 medium containing 10% fetal bovine serum (FBS), GM-CSF (100 ng/ml) and IL4 (20 ng/ml) (PeproTech, Rocky Hill, N.J.). Cytokines were added to cultures every 2 or 3 days for a total of 5 days to induce dendritic cells differentiation. Neutralizing antibody against IL6 was purchased from R&D Systems (Minneapolis, Minn.) and used at daily dose of 2.5 μg/ml. Intestinal mucosa was obtained from surgically resected specimens from patients diagnosed with inflammatory bowel diseases including Crohn's disease and ulcerative colitis. Specimens were taken from both inflamed and non-inflamed mucosa and were confirmed macroscopically and microscopically. Lamina propria mononuclear cells were isolated using previously described techniques. (Dillon, et al. 2010 J Immunol 184(12): p. 6612-21; Kamada, et al. 2008 J Clin Invest 118(6): p. 2269-80.) LPDCs were purified as the fraction of CD19^−CD1c^+ cells with magnetic microbeads (Miltenyi Biotec). To promote maturation of DCs, 100 ng/ml of E Coli LPS (Sigma-Aldrich) was added to the medium and further cultured for 24 hours. Experiments with human materials were performed in accordance with guidelines approved by the institutional review committee of Brigham and Women's Hospital. […]
(§2) Phenotypic analyses of DCs and THP1 cells were performed with flow cytometry after immunostaining of cells with fluorescence dye conjugated antibodies (eBioscience, San Diego, Calif.). […] Stained cells were analyzed with FACScan flow cytometer (BD Bioscience) using FlowJo software. Results are expressed as the percentage of positive cells or mean fluorescence intensity (MFI) values after subtraction of the MFI obtained from the isotype control antibody.

IL6 = test: Cytokine expression in transfected monocytes (reverse transcription PCR and intracellular staining); type: cell-based, human
Description: To elucidate the mechanisms underlying VentX regulated DCs differentiation and maturation, expression level of cytokines known to be important for DCs development was analyzed by reverse transcription PCR and intracellular staining. […] It has been shown that IL6 inhibits DC differentiation and maturation from both CD14^+ monocytes and CD34^+ progenitor cells. […] The effect of VentX on the activity of […] IL6 promoter luciferase reporter and several deletion mutant constructs was assessed. […] To address this question, neutralizing antibody against IL6 was added to the culture medium of VentX MO transfected monocytes and differentiation of DCs was assessed through flow cytometry analysis of CD1a surface expression.
as §2, with “antibody. […]” for “antibody.”

DCs = type: cell-based, human; details: after MO transfection; data not shown
From the text: Following a recent finding that VentX is expressed in human primary monocytes, VentX expression was examined during primary monocytes to dendritic cells differentiation induced by GM-CSF and IL-4 treatment. […] To explore potential role of VentX in DC differentiation, the effects of VentX knockdown on in vitro DCs differentiation were examined. […] (Iwamoto, et al. 2007 J Immunol 179(3): p. 1449-57; Gabriele, et al. 2004 Blood 103(3): p. 980-7.) To obtain a long-lasting knockdown effect of VentX in monocytes, a morpholino (MO) mediated VentX knockdown strategy was developed. Two different morpholino antisense oligonucleotides were designed (VentX MO and VentX MO-2) and tested for the knockdown efficiency of VentX. […] Freshly isolated CD14^+CD1a^− monocytes differentiate in vitro into immature CD14^−CD1a^+ DCs when cultured with GM-CSF and IL-4. (Bell, et al. 2001 J Immunol 166(8): p. 4958-67.) Surface expression of CD1a antigen was examined in monocytes transfected with control MO or VentX MO respectively. […] To corroborate the role of VentX in regulating DCs differentiation, VentX was ectopically expressed in primary monocytes and the CD14^−CD1a^+ cells were determined after 3 days of cytokines treatment. Overexpression of VentX in monocytes greatly accelerated the DCs differentiation (FIG. 1E-F).

LPDCs = test: Pro-inflammatory cytokine mRNA in DCs treated with prednisolone and LPS; type: cell-based, human; details: prednisolone, LPS added 24 hours later, harvested at 48 hours, FIG. 6G
Description: (§3) FIG. 6: VentX is required for the maturation of lamina propria DCs. (A) LPDCs were isolated from inflamed and non-inflamed intestinal mucosa of five IBD patients. VentX level was determined with real time PCR. (B) LPDCs were transfected with siRNA targeting VentX or control GFP through electroporation followed by culturing in medium for two days. Then cells were stimulated with LPS for overnight to induce maturation and harvested for flow cytometry analysis of surface markers and intracellular cytokines/chemokines. Filled histograms indicate siGFP transfection. […] Results are expressed as the percentage of MFI normalized to control. […] (D) LPDCs transfected with siGFP or siVentX were analyzed for the mRNA expression levels of indicated genes. […] (F) DCs were treated with prednisolone (10 μg/ml) for 48 hours or mock treated, and VentX level was determined with real time PCR. […]
(§4) Aberrant activation of DCs has been implicated in mucosal inflammation in pathogenesis of inflammatory bowl diseases. […] VetnX expression levels in these DCs were determined by RT-PCR methods. […]
as §1

VentX [2] = test: VentX expression in LPDCs treated with prednisolone (real time PCR); type: cell-based, human; details: prednisolone 10 μg/ml, 48 hours, vs mock treated; FIG. 6F
Description: as §3, §4, §1

Molecule	VentX expression in DCs compared with control sequence (VentX [1])	expression of CD16, CD36, CD64, mannose receptor (MR) and TLR4 (human primary monocytes; MO transfected DCs)	percentage of CD14-CD1a+ cells (human primary monocytes; monocytes + GM-CSF and IL4, 5 days, in comparison with control MO, FIG. 1A-B)	surface expression of CD1b, CD1c and CD11c (human primary monocytes; monocytes + GM-CSF and IL4, 5 days, vs control MO)	IL1β, TNFα and IL10 expression (IL6; MO transfected cells, data not shown)	IL6 expression (IL6; monocytes + GM-CSF and IL4, 5 days, mRNA and intracellular level, FIGS. 3A and C)	cell death in DCs (DCs)	expression of pro-inflammatory cytokines, such as the IL2, TNF, CCL5 (LPDCs)	VentX expression in LPDCs (VentX [2])
5′-GAGCCCGGTTTGCATACACGGCTAA-3′ (morpholino, further chemistry not given here) [VentX MO-2, Morpholino antisense oligonucleotide targeting VentX]	inhibited VentX expression								
5′-TACTCAACCCTGACATAGAGGGTAA-3′ (morpholino, further chemistry not given here) [VentX MO, Morpholino antisense oligonucleotide targeting VentX]	inhibited VentX expression	remained unchanged	substantial reduction	similarly downregulated	no apparent changes	consistently increased	did not cause excess cell death		
C[C@]12C=CC(=O)C=C1CC[C@@H]1[C@@H]2[C@@H](O)C[C@@]2(C)[C@H]1CC[C@]2(O)C(=O)CO [prednisolone]								dramatically decreased	dramatically decreased
